According to US9346813B2, “Substituted pyrrolo[2,3-d]pyrimindines as CDK9 kinase inhibitors” (AbbVie Inc., priority 2014, dated 2016):

Each compound was assayed against T1, CDK9/Cyclin T1 (Homo sapiens, UniProt P50750) (assay: CDK9 enzyme protocol (LANCE ULight TR-FRET kinase assay)). Conditions: 4 nM CDK9/Cyclin T1, 1000 μM ATP, 100 nM U-light MBP peptide, 30 minutes.
T1 construct: purchased Carna Biosciences 04-110
Type: biochemical
Experimental: CDK9 enzyme activities were measured using LANCE ULight TR-FRET kinase assay reagents (PerkinElmer, Waltham, Mass.). Compounds were directly added in 100% DMSO to white low volume assay plates (Perkin Elmer Proxiplate 6008289) using a Labcyte Echo acoustic dispenser. Assay reagents in serine/threonine kinase assay buffer containing 20 mM HEPES, 10 mM MgCl2, 100 mM Na3VO4, and 0.0075% Triton X-100. were added for final reaction mixture concentrations of 1000 μM ATP, 100 nM U-light MBP peptide (Perkin Elmer TRF0109M) and reaction initiated with 4 nM CDK9/Cyclin T1 (Carna Biosciences 04-110). The kinase reaction was carried out for 30 minutes before addition of stopping buffer to a final of 20 mM EDTA and 0.5 nM of LANCE Ultra Europium anti-phospho-MBP antibody (PerkinElmer TRF0201M) in LANCE detection buffer (PerkinElmer CR97-100). The reaction was equilibrated for 1 hour and the signal read in the Perkin Elmer Envision in TR-FRET mode (excitation at 320 nm and emission at 615/665 nm).

T1 sequence (P50750 whole entry): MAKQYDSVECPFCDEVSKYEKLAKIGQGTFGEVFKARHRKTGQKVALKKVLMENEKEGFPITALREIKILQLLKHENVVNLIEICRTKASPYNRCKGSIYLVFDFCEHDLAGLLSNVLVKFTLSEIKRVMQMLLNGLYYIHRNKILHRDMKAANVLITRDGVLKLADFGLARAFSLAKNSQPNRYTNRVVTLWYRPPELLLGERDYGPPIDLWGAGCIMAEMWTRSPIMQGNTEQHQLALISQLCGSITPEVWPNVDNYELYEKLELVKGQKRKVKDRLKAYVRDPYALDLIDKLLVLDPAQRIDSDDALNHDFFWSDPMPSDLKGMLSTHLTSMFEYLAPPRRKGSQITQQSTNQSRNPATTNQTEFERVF
T1 sequence (O60563 whole entry partner): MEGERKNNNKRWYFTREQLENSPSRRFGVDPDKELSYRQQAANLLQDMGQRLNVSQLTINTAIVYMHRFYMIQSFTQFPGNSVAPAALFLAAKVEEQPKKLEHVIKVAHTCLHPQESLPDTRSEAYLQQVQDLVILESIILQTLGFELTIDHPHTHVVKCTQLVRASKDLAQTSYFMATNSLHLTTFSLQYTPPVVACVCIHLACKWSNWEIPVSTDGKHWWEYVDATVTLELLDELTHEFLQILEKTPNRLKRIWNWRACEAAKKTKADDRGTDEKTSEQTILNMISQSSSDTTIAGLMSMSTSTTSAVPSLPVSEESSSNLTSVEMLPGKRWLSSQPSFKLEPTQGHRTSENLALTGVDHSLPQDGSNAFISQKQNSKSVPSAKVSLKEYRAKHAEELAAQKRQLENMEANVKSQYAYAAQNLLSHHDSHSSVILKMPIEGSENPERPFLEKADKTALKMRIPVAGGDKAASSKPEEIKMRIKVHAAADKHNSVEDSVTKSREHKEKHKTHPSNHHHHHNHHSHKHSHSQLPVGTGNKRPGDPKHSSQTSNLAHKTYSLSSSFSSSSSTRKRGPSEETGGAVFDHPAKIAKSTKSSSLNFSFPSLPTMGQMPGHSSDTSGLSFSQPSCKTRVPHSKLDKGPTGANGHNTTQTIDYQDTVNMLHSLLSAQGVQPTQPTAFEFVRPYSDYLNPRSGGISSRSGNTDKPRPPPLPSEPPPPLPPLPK

Row | SMILES | IC50
1 | CN(C)C(=O)N1CC=C(c2cc3c(-c4cccc(F)c4F)ncnc3[nH]2)CC1 [Example 76, 4-[4-(2,3-difluorophenyl)-7H-pyrrolo[2,3-d]pyrimidin-6-yl]-N,N-dimethyl-3,6-dihydropyridine-1(2H)-carboxamide] | 68 nM
2 | CCCOc1ccc(C)cc1-c1ncnc2[nH]c(C3=CCN(S(C)(=O)=O)CC3)cc12 [Example 53, 4-(5-methyl-2-propoxyphenyl)-6-[1-(methylsulfonyl)-1,2,3,6-tetrahydropyridin-4-yl]-7H-pyrrolo[2,3-d]pyrimidine] | 2800 nM
3 | Cc1cc(Cl)cc(-c2ncnc3[nH]c(C4=CCN(S(C)(=O)=O)CC4)cc23)c1F [Example 41, 4-(5-chloro-2-fluoro-3-methylphenyl)-6-[1-(methylsulfonyl)-1,2,3,6-tetrahydropyridin-4-yl]-7H-pyrrolo[2,3-d]pyrimidine] | 11700 nM
4 | CCOc1ccc(F)cc1-c1ncnc2[nH]c(C3=CCN(C(=O)OC(C)(C)C)CC3)cc12 [Example 66, tert-butyl 4-[4-(2-ethoxy-5-fluorophenyl)-7H-pyrrolo[2,3-d]pyrimidin-6-yl]-3,6-dihydropyridine-1(2H)-carboxylate] | 1500 nM
5 | CS(=O)(=O)N1CC=C(c2cc3c(-c4cccc(OC(F)(F)F)c4)ncnc3[nH]2)CC1 [Example 56, 6-[1-(methylsulfonyl)-1,2,3,6-tetrahydropyridin-4-yl]-4-[3-(trifluoromethoxy)phenyl]-7H-pyrrolo[2,3-d]pyrimidine] | 1600 nM
6 | CCOc1ccc(F)cc1-c1ncnc2[nH]c(C3=CCNCC3)cc12 [Example 67, 4-(2-ethoxy-5-fluorophenyl)-6-(1,2,3,6-tetrahydropyridin-4-yl)-7H-pyrrolo[2,3-d]pyrimidine] | 300 nM
7 | Cc1ccc(OC(C)C)c(-c2ncnc3[nH]c(C4=CCN(S(C)(=O)=O)CC4)cc23)c1 [Example 43, 4-[5-methyl-2-(propan-2-yloxy)phenyl]-6-[1-(methylsulfonyl)-1,2,3,6-tetrahydropyridin-4-yl]-7H-pyrrolo[2,3-d]pyrimidine] | > 12500 nM
8 | CCCOc1ccc(F)cc1-c1ncnc2[nH]c(C3=CCN(S(C)(=O)=O)CC3)cc12 [Example 49, 4-(5-fluoro-2-propoxyphenyl)-6-[1-(methylsulfonyl)-1,2,3,6-tetrahydropyridin-4-yl]-7H-pyrrolo[2,3-d]pyrimidine] | 1300 nM
9 | COc1ccncc1-c1ncnc2[nH]c(C3=CCN(S(C)(=O)=O)CC3)cc12 [Example 59, 4-(4-methoxypyridin-3-yl)-6-[1-(methylsulfonyl)-1,2,3,6-tetrahydropyridin-4-yl]-7H-pyrrolo[2,3-d]pyrimidine] | 910 nM
10 | CS(=O)(=O)Nc1cccc(-c2ncnc3[nH]c(C4=CCN(S(C)(=O)=O)CC4)cc23)c1 [Example 48, N-(3-{6-[1-(methylsulfonyl)-1,2,3,6-tetrahydropyridin-4-yl]-7H-pyrrolo[2,3-d]pyrimidin-4-yl}phenyl)methanesulfonamide] | 290 nM
11 | CS(=O)(=O)N1CC=C(c2cc3c(-c4cc(C(F)(F)F)ccc4F)ncnc3[nH]2)CC1 [Example 51, 4-[2-fluoro-5-(trifluoromethyl)phenyl]-6-[1-(methylsulfonyl)-1,2,3,6-tetrahydropyridin-4-yl]-7H-pyrrolo[2,3-d]pyrimidine] | > 12500 nM
12 | CS(=O)(=O)N1CC=C(c2cc3c(N4CCCC4)ncnc3[nH]2)CC1 [Example 62, 6-[1-(methylsulfonyl)-1,2,3,6-tetrahydropyridin-4-yl]-4-(pyrrolidin-1-yl)-7H-pyrrolo[2,3-d]pyrimidine] | 5000 nM
13 | CS(=O)(=O)N1CC=C(c2cc3c(N4CCOCC4)ncnc3[nH]2)CC1 [Example 60, 6-[1-(methylsulfonyl)-1,2,3,6-tetrahydropyridin-4-yl]-4-(morpholin-4-yl)-7H-pyrrolo[2,3-d]pyrimidine] | 4000 nM
14 | COc1ccc(F)cc1-c1ncnc2[nH]c(C3=CCN(Cc4ccc(NC(=O)OC(C)(C)C)cc4)CC3)cc12 [Example 69, tert-butyl [4-({4-[4-(5-fluoro-2-methoxyphenyl)-7H-pyrrolo[2,3-d]pyrimidin-6-yl]-3,6-dihydropyridin-1(2H)-yl}methyl)phenyl]carbamate] | 450 nM
15 | Cc1ccc(F)c(-c2ncnc3[nH]c(C4=CCN(S(C)(=O)=O)CC4)cc23)c1 [Example 50, 4-(2-fluoro-5-methylphenyl)-6-[1-(methylsulfonyl)-1,2,3,6-tetrahydropyridin-4-yl]-7H-pyrrolo[2,3-d]pyrimidine] | 1000 nM
16 | CCCCOc1ccc(F)cc1-c1ncnc2[nH]c(C3=CCN(S(C)(=O)=O)CC3)cc12 [Example 42, 4-(2-butoxy-5-fluorophenyl)-6-[1-(methylsulfonyl)-1,2,3,6-tetrahydropyridin-4-yl]-7H-pyrrolo[2,3-d]pyrimidine] | 1200 nM
17 | CCCCOc1ccc(F)c(-c2ncnc3[nH]c(C4=CCN(S(C)(=O)=O)CC4)cc23)c1 [Example 54, 4-(5-butoxy-2-fluorophenyl)-6-[1-(methylsulfonyl)-1,2,3,6-tetrahydropyridin-4-yl]-7H-pyrrolo[2,3-d]pyrimidine] | 4100 nM
18 | CS(=O)(=O)N1CC=C(c2cc3c(N4CCC(F)(F)CC4)ncnc3[nH]2)CC1 [Example 63, 4-(4,4-difluoropiperidin-1-yl)-6-[1-(methylsulfonyl)-1,2,3,6-tetrahydropyridin-4-yl]-7H-pyrrolo[2,3-d]pyrimidine] | 1300 nM
19 | COc1ccc(F)cc1-c1ncnc2[nH]c(C3CCN(C)CC3)cc12 [Example 2, 4-(5-fluoro-2-methoxyphenyl)-6-(1-methylpiperidin-4-yl)-7H-pyrrolo[2,3-d]pyrimidine] | 110 nM
20 | Cn1cc(-c2ncnc3[nH]c(C4=CCN(S(C)(=O)=O)CC4)cc23)cn1 [Example 57, 4-(1-methyl-1H-pyrazol-4-yl)-6-[1-(methylsulfonyl)-1,2,3,6-tetrahydropyridin-4-yl]-7H-pyrrolo[2,3-d]pyrimidine] | 2400 nM
21 | CS(=O)(=O)N1CC=C(c2cc3c(-c4cc(NCc5ccccn5)ccc4F)ncnc3[nH]2)CC1 [Example 33, 4-fluoro-3-{6-[1-(methylsulfonyl)-1,2,3,6-tetrahydropyridin-4-yl]-7H-pyrrolo[2,3-d]pyrimidin-4-yl}-N-(pyridin-2-ylmethyl)aniline] | 300 nM
22 | CC(C)Oc1ccc(F)c(-c2ncnc3[nH]c(C4=CCN(S(C)(=O)=O)CC4)cc23)c1 [Example 52, 4-[2-fluoro-5-(propan-2-yloxy)phenyl]-6-[1-(methylsulfonyl)-1,2,3,6-tetrahydropyridin-4-yl]-7H-pyrrolo[2,3-d]pyrimidine] | 10100 nM
23 | CS(=O)(=O)N1CC=C(c2cc3c(-c4ccc(F)cc4F)ncnc3[nH]2)CC1 [Example 46, 4-(2,4-difluorophenyl)-6-[1-(methylsulfonyl)-1,2,3,6-tetrahydropyridin-4-yl]-7H-pyrrolo[2,3-d]pyrimidine] | 830 nM
24 | CS(=O)(=O)N1CC=C(c2cc3c(N4CC(F)(F)C4)ncnc3[nH]2)CC1 [Example 64, 4-(3,3-difluoroazetidin-1-yl)-6-[1-(methylsulfonyl)-1,2,3,6-tetrahydropyridin-4-yl]-7H-pyrrolo[2,3-d]pyrimidine] | 2000 nM
25 | CS(=O)(=O)N1CC=C(c2cc3c(-c4ccccc4C(F)(F)F)ncnc3[nH]2)CC1 [Example 47, 6-[1-(methylsulfonyl)-1,2,3,6-tetrahydropyridin-4-yl]-4-[2-(trifluoromethyl)phenyl]-7H-pyrrolo[2,3-d]pyrimidine] | 1400 nM
26 | CS(=O)(=O)N1CC=C(c2cc3c(-c4ccccc4OC(F)(F)F)ncnc3[nH]2)CC1 [Example 58, 6-[1-(methylsulfonyl)-1,2,3,6-tetrahydropyridin-4-yl]-4-[2-(trifluoromethoxy)phenyl]-7H-pyrrolo[2,3-d]pyrimidine] | > 12500 nM
27 | COc1ccc(C)cc1-c1ncnc2[nH]c(C3=CCN(S(C)(=O)=O)CC3)cc12 [Example 44, 4-(2-methoxy-5-methylphenyl)-6-[1-(methylsulfonyl)-1,2,3,6-tetrahydropyridin-4-yl]-7H-pyrrolo[2,3-d]pyrimidine] | 610 nM

The compounds below were run on H929 cells (assay: Cell viability assay in H929 cells (Cell TiterGlo)). Conditions: Homo sapiens, NCI-H929, 24 hours at 37° C.
Type: cell-based
Experimental: Cell viability assays were performed using A431 or H929 cells. A431 cells were seeded in 96-well plates at 10,000 cells/well, and after overnight incubation, treated with compounds at 2-times the final concentration to result in a dose response of 3-fold dilutions from 10 μM to 0.0005 μM (50 μL/well, 0.1% final DMSO concentration). H929 cells were seeded in 96-well plates at 10,000 cells/well and treated immediately with compounds as described above. After 24 hours at 37° C., cell viability was measured using Cell TiterGlo reagent (Promega) with a luminescence reader. Alternately, cell viability assays were performed in 384-well format. A431 cells were seeded in 384-well plates at 2500 cells/well and, after overnight incubation, treated with compounds in a dose response of 3-fold dilutions from 10 μM to 0.0005 μM (25 nL/well, 0.1% final DMSO concentration). For the H929 viability assay, 25 nL/well of the compounds was dispensed into 384-well plates in a dose response as described above and cells were immediately seeded in 384-well plates at 2500 cells/well. After 24 hours at 37° C., cell viability was measured using Cell TiterGlo reagent (Promega) with a luminescence reader.

Row | SMILES | EC50
28 | CN(C)C(=O)N1CC=C(c2cc3c(-c4cccc(F)c4F)ncnc3[nH]2)CC1 [Example 76, 4-[4-(2,3-difluorophenyl)-7H-pyrrolo[2,3-d]pyrimidin-6-yl]-N,N-dimethyl-3,6-dihydropyridine-1(2H)-carboxamide] | 3500 nM
29 | COc1ccc(F)cc1-c1ncnc2[nH]c(C3=CCN(CC(O)CO)CC3)cc12 (centres unmarked) [Example 20, 3-{4-[4-(5-fluoro-2-methoxyphenyl)-7H-pyrrolo[2,3-d]pyrimidin-6-yl]-3,6-dihydropyridin-1(2H)-yl}propane-1,2-diol] | 380 nM
